Test results as given in patent publication US9096640B2, “17-hydroxy-17-pentafluoroethyl-estra-4,9(10)-diene-11-methylene oxyalkylene aryl derivatives, process for preparation thereof, and use thereof for treatment of diseases” (Bayer Intellectual Property, priority 2009, dated 2015).
pIC50: −log10 of the molar value.

Legend:
[1] = target: T1, human progesterone receptor A (Homo sapiens, UniProt P06401); assay: Progesterone receptor transactivation test in stably transfected SK-N-MC cells (PR-A, MMTV-LUC reporter); format: cell-based; conditions: 24 hours, in presence of 0.1 nmol/l promegestone, luciferase reporter, read-out: PR-A IC50 (antagonistic potency)
T1 construct: expressed in transfected cells; host or cells: SK-N-MC human neuroblastoma cells, stably transfected with pRChPR-A-neo and pMMTV-LUC
T1 sequence (P06401 1-769 isoform P06401-2): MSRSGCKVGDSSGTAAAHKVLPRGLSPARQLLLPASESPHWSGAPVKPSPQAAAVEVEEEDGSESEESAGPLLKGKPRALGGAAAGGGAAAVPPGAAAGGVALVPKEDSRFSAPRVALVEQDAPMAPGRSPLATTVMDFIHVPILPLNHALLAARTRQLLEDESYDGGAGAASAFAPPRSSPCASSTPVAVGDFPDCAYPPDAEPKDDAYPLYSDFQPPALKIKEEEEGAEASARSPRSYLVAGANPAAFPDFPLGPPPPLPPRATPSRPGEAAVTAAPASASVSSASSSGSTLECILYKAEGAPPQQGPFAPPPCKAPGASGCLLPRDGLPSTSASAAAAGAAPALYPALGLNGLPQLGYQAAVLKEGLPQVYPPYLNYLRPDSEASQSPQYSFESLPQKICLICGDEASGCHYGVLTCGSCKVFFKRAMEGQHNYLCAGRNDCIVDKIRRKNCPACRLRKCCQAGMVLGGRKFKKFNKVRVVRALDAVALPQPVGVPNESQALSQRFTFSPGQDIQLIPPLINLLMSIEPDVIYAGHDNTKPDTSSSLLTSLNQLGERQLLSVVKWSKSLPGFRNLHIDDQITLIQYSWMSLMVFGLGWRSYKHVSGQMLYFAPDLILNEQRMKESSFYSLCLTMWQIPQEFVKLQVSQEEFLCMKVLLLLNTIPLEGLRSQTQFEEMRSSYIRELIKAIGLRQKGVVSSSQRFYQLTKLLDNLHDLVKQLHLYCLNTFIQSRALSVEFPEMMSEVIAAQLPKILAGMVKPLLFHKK
Protocol: (§1) Progesterone Receptor-Antagonistic Action in Stable Transfectants of Human Neuroblastoma Cells (SK-N-MC Cells) with the Human Progesterone A or Progesterone B Receptor and an MN-LUC Reporter Construct
(§2) SK-N-MC cells (human neuroblastoma cells) which have been stably transfected with plasmids expressing the human progesterone receptor B (pRChPR-B-neo) or the human progesterone receptor A (pRChPR-A-neo) and a reporter construct (pMMTV-LUC) were incubated for 24 hours either in the absence (negative control) or in the presence of ascending amounts of the particular test compound (0.01 nmol/l, 0.1 nmol/l, 1 nmol/l, 10 nmol/l, 100 nmol/l and […]), in order to determine the agonistic efficacy. As a positive control of the reporter gene induction, the cells were treated with the synthetic gestagen promegestone (0.01 nmol/l, 0.1 nmol/l, 1 nmol/l, 10 nmol/l, 100 nmol/l and […]). To determine the antagonistic activity, the cells were treated with 0.1 nmol/l promegestone and additionally with ascending amounts of the particular test compound (0.01 nmol/l, 0.1 nmol/l, 1 nmol/l, 10 nmol/l, 100 nmol/l and […]). The activity of the reporter gene LUC (LUC=luciferase) was determined in the cell lysates and measured as RLU (relative light units). All measurements are reported as % efficacy and as […] and […] concentrations.

[2] = target: T2, human progesterone receptor B (Homo sapiens, UniProt P06401); assay: Progesterone receptor transactivation test in stably transfected SK-N-MC cells (PR-B, MMTV-LUC reporter); format: cell-based; conditions: 24 hours, in presence of 0.1 nmol/l promegestone, luciferase reporter, read-out: PR-B IC50 (antagonistic potency)
T2 construct: expressed in transfected cells; host or cells: SK-N-MC human neuroblastoma cells, stably transfected with pRChPR-B-neo and pMMTV-LUC
T2 sequence (P06401 1-933): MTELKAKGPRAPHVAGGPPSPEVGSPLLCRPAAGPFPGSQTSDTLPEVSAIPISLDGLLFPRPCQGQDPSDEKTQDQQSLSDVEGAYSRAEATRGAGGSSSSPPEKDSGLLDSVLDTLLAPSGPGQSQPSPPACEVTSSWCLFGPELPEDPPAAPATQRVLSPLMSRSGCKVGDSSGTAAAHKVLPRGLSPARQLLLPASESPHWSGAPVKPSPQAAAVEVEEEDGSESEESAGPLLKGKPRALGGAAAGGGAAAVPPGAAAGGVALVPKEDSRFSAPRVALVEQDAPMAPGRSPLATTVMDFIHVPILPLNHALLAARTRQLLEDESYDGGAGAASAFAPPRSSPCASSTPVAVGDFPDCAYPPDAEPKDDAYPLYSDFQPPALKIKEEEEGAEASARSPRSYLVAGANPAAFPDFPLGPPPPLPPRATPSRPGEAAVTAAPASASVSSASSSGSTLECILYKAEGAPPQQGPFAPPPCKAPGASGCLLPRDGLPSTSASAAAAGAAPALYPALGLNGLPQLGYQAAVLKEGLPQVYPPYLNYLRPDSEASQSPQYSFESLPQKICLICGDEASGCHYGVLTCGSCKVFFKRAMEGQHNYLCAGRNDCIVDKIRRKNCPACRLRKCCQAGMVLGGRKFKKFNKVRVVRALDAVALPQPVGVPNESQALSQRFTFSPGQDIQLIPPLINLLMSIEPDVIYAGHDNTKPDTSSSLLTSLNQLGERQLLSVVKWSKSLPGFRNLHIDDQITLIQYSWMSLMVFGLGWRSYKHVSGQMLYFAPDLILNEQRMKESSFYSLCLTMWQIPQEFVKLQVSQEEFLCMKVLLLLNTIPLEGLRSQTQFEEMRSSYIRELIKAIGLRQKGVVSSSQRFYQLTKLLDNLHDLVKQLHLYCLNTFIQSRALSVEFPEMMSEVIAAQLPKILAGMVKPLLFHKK
Protocol: as §1, §2

Compound	pIC50 [1]	pIC50 [2]
CC(OCCO)c1ccc(C2C[C@@]3(C)C(CC[C@@]3(O)C(F)(F)C(F)(F)F)C3CCC4=CC(=O)CCC4=C23)cc1 (mixture of isomers) [Example 1A, (8S,11R,13S,14S,17S)-17-hydroxy-11-{4-[(1RS)-1-(2-hydroxyethoxy)ethyl]phenyl}-13-methyl-17-pentafluoroethyl-1,2,6,7,8,11,12,13,14,15,16,17-dodecahydro-cyclopenta[a]phenanthren-3-one]	9.92	9.44
COC(C)c1ccc(C2C[C@@]3(C)C(CC[C@@]3(O)C(F)(F)C(F)(F)F)C3CCC4=CC(=O)CCC4=C23)cc1 (mixture of isomers) [Example 1B, (8S,11R,13S,14S,17S)-17-hydroxy-11-[4-((1RS)-1-methoxyethyl)phenyl]-13-methyl-17-pentafluoroethyl-1,2,6,7,8,11,12,13,14,15,16,17-dodecahydrocyclopenta[a]phenanthren-3-one]	10.00	10.00
CC(OCC(=O)O)c1ccc([C@H]2C[C@@]3(C)C(CC[C@@]3(O)C(F)(F)C(F)(F)F)C3CCC4=CC(=O)CCC4=C32)cc1 (mixture of isomers) [Example 3, {(RS)-1-[4-((8S,11R,13S,14S,17S)-17-hydroxy-13-methyl-3-oxo-17-pentafluoroethyl-2,3,6,7,8,11,12,13,14,15,16,17-dodecahydro-1H-cyclopenta[a]phenanthren-11-yl)phenyl]ethoxy}acetic acid]	7.89	8.01
C[C@]12C[C@H](c3ccc(CCOCC(=O)O)cc3)C3=C4CCC(=O)C=C4CC[C@H]3[C@@H]1CC[C@@]2(O)C(F)(F)C(F)(F)F [Example 6, {2-[4-((8S,11R,13S,14S,17S)-17-hydroxy-13-methyl-3-oxo-17-pentafluoroethyl-2,3,6,7,8,11,12,13,14,15,16,17-dodecahydro-1H-cyclopenta[a]phenanthren-11-yl)-phenyl]ethoxy}acetic acid]	8.52	7.92

Further compounds by rising pIC50 [1], results first:

pIC50 [1]	pIC50 [2]	Compound
10.00	9.92	CC(OCC(=O)OC(C)(C)C)c1ccc([C@H]2C[C@@]3(C)C(CC[C@@]3(O)C(F)(F)C(F)(F)F)C3CCC4=CC(=O)CCC4=C32)cc1 (mixture of isomers) [Example 2, {(1RS)-1-[4-((8S,11R,13S,14S,17S)-17-hydroxy-13-methyl-3-oxo-17-pentafluoroethyl-2,3,6,7,8,11,12,13,14,15,16,17-dodecahydro-1H-cyclopenta[a]phenanthren-11-yl)phenyl]ethoxy}acetic acid tert-butyl ester]
10.00	10.00	CC(OCC#N)c1ccc([C@H]2C[C@@]3(C)C(CC[C@@]3(O)C(F)(F)C(F)(F)F)C3CCC4=CC(=O)CCC4=C32)cc1 (mixture of isomers) [Example 5, {(RS)-1-[4-((8S,11R,13S,14S,17S)-17-hydroxy-13-methyl-3-oxo-17-pentafluoroethyl-2,3,6,7,8,11,12,13,14,15,16,17-dodecahydro-1H-cyclopenta[a]phenanthren-11-yl)phenyl]ethoxy}acetonitrile]
10.00	10.00	CC(C)(C)OC(=O)COCCc1ccc([C@H]2C[C@@]3(C)[C@@H](CC[C@@]3(O)C(F)(F)C(F)(F)F)[C@@H]3CCC4=CC(=O)CCC4=C32)cc1 [Example 4, {2-[4-((8S,11R,13S,14S,17S)-17-hydroxy-13-methyl-3-oxo-17-pentafluoroethyl-2,3,6,7,8,11,12,13,14,15,16,17-dodecahydro-1H-cyclopenta[a]phenanthren-11-yl)-phenyl]ethoxy}acetic acid tert-butyl ester]
10.00	10.00	C[C@]12C[C@H](c3ccc(CCOCCO)cc3)C3=C4CCC(=O)C=C4CC[C@H]3[C@@H]1CC[C@@]2(O)C(F)(F)C(F)(F)F [Example 7, (8S,11R,13S,14S,17S)-17-hydroxy-11-{4-[2-(2-hydroxyethoxy)ethyl]phenyl}-13-methyl-17-pentafluoroethyl-1,2,6,7,8,11,12,13,14,15,16,17-dodecahydro-cyclopenta[a]phenanthren-3-one]
10.22	10.00	Cc1nc2cc(COC(C)c3ccc(C4C[C@@]5(C)C(CC[C@@]5(O)C(F)(F)C(F)(F)F)C5CCC6=CC(=O)CCC6=C45)cc3)ccc2s1 (mixture of isomers) [Example 8, (8S,11R,13S,14S,17S)-17-hydroxy-13-methyl-11-{4-[(RS)-1-(2-methylbenzothiazol-5-ylmethoxy)ethyl]phenyl}-17-pentafluoroethyl-1,2,6,7,8,11,12,13,14,15,16,17-dodecahydro-cyclopenta[a]phenanthren-3-one]
